Assays:
[1] = test system: NZB/W-F1 mice; experiment: SLE in NZB/W-F1 mice; type: in vivo
[2] = test system: iNKT cells; experiment: In vitro cytokine modulation, murine cell assay system; type: cell-based
Excerpt: The term iNKT cells, as used herein, mean the specific subset of CD1d-dependent T cells that expresses the invariant TCRα chain rearrangement consisting of Vα14-Jα18 in mice, and Vα24-Jα18 in humans. These cells are uniformly reactive to α-galactosylceramides presented by CD1d. These cells are also referred to as “Type 1” NKT cells, and the distinction between the different types of NKT cells and the nomenclature relating to this are summarized in the publication by Godfrey et al., Nat Rev Immunol. 2004 March; 4(3):231-7. Methods for determining cytokine production by iNKT cells in response to CD1d-presented glycolipids for determination of strong or weak agonist activity are described in Yu K O A, Im J S, Molano A, Dutronc Y, Illarionov P A, Forestier C, Fujiwara N, Arias I, Miyake S, Yamamura T, Chang Y-T, Besra G S, Porcelli S A, Modulation of CD1d-restricted NKT cell responses using N-acyl variants of α-galactosylceramides, Proc. Nat. Acad. Sci. (USA), 102:3383-8 (2005), see also Godfrey D I et al., Nat Rev Immunol. 2004 March; 4(3):231-7.

[3] = test system: NK T hybridoma DN3A4.1-2; experiment: Upregulation of CD40L (CD154), FACS; type: cell-based, mouse; conditions: 0.5 uM glycolipid, 18 hours, RMA-S/CD1d cells
Procedure: The upregulation of CD40L by ceramide-like glycolipids reported in FIG. 11 were obtained by incubating NK T hybridoma DN3A4.1-2 with RMA-S/CD1d cells at a ratio of 2:1 in the presence of 0.5 uM of ceramide-like glycolipid for 18 hours. Cells were then resuspended and labeled with mAbs specific for CD5 and CD40L. Levels of CD40L were determined by FACS analysis of the population gated for CD5 staining.

[4] = test system: C57BL/6 mice; experiment: Serum IL-4 and IFNγ after a single i.p. injection; type: in vivo; conditions: 20 hours after single i.p. injection of 4.8 nanomoles
Procedure: Serum levels of L-4 and IFNγ after a single injection of DB01-1, DB03-4, or DB03-5 are shown. C57BL/6 mice (11-13 weeks old) were given a single i.p. injection of 4.8 nanomoles of the compounds or phosphate buffered saline (PBS)/vehicle control. Serum cytokine levels were measured 2 and 20 hours later by capture ELISA. Bars show means of three mice, with standard deviation. Note that DB01-1 has nearly identical structure to KRN7000 (C24 fatty acid as compared to C26) and has activity that is indistinguishable from KRN7000 in multiple bioassays. We use DB01-1 as a “KRN7000 mimic” because it has been synthesized by our group and is readily available for our studies, and KRN7000 was unavailable due to license restrictions.
A most intriguing property of KRN7000 analogues is that in some cases they may elicit immune responses that are qualitatively different from those that occur following stimulation with the parent compound. […] This selective activation of IL-4 production by NK T cells was proposed to be the basis for the enhanced therapeutic effects of OCH in the EAE model of central nervous system autoimmune disease. We have observed a similar in vivo effect on the nature of the NK T cell response using several of our ceramide-like glycolipids. […] These responses are similar to those seen for DB01-1, an analogue that is structurally almost identical to KRN7000 (C24 fatty acid instead of C26, otherwise identical) and indistinguishable in terms of its activity in our hands. […] This selective IL-4 induction is virtually identical to that reported for the OCH analogue, and thus illustrates the potential for amino substituted analogues of KRN7000 to induce qualitatively different immunomodulatory effects in vivo. The results reported in FIG. 9 were obtained by measuring serum levels of IL-4 and IFNγ after administering a single injection of […], DB03-4, or DB03-5 to C57BL/6 mice. C57BL/6 mice (11-13 weeks old) were given a single i.p. injection of 4.8 nanomoles of the ceramide-like glycolipids or PBS/vehicle control. Serum cytokine levels were measured 2 and 20 hours later by capture ELISA. Bars show means of three mice, with standard deviation.
For experiments involving in vivo treatment of mice with the ceramide-like glycolipids, the ceramide-like glycolipids were administered by i.p. or i.v. injection in 0.2 ml PBS+0.025% Tween-20, or in vehicle alone. A typical dose is about 4-5 nmoles per animal per injection. Representative references for administering an α-galactosyl ceramide to mice by i.p., i.v. or p.o. routes are S. Sharif et al., Activation of natural killer T cells by alpha-galactosylceramide treatment prevents the onset and recurrence of autoimmune Type 1 diabetes, Nat. Med., Sep. 7, 2001, (9):1057-62 and K. Miyamoto et al., A synthetic glycolipid prevents autoimmune encephalomyelitis by inducing TH2 bias of natural killer T cells, Nature. Oct. 4, 2001, 413(6855):5314.

[5] = test system: Bulk splenocytes from C57BL/6 mice; experiment: Cytokine response of splenocyte cultures (IL-4 and IFNγ ELISA); type: cell-based; conditions: 500 nM glycolipid, 48 hours
Procedure: The cytokine response reported in Table 1 and FIG. 5C was determined by the following procedure: Bulk splenocytes from C57BL/6 mice were plated at 300,000 per well in 96-well flat-bottom tissue culture plates with ceramide-like glycolipids diluted to a concentration of 500 nM in 200 microliters complete medium. After 48 h at 37° C., 150 microliters of supernatant was removed for cytokine measurements. Supernatant levels of IL-4, and IFNγ were measured by standard enzyme-linked immunosorbent assay (ELISA), using capture and biotinylated detection antibody pairs (clones 11B11/BVD6-24G2-biotin, and R4-6A2/XMG1.2-biotin, respectively, from BD Pharmingen, San Diego, Calif.). […] Standards for IL-4 and IFNγ were from Peprotech (Rocky Hill, N.J.).

[6] = test system: Bulk splenocytes from C57BL/6 mice; experiment: Splenocyte proliferation assay (3H-thymidine incorporation); type: cell-based; conditions: Mus musculus, concentration giving 50% maximal response in proliferation of splenocyte cultures
[7] = test system: NOD mice; conditions: twice weekly injection from 4 weeks of age, reduction from 75%; cited from earlier work
[8] = culture supernatant ELISA, ND = below the reliable level for detection

CCCCCCCCCCCCCCCCCCCCCCCC(=O)N[C@@H](CO[C@@H]1OC(C)[C@@H](O)[C@H](O)C1O)[C@H](O)[C@H](O)CCCCCCCCCCCCCC (some centres unmarked) [DB03-8]
effect on SLE [1]: exacerbates SLE | agonist activity on iNKT cells ([2]; in vitro): weak agonist | in vitro activity at modulating cytokines ([2]; murine cell assay system): show in vitro activity | CD40L expression [3]: capable of inducing CD40L

CCCCCCCCCCCCCCCCCCCCCCCC(=O)N[C@@H](COC1OC(CO)C(O)C(O)C1O)[C@H](O)[C@H](O)CCCCCCCCCCCCCC (some centres unmarked) [DB01-1]
serum IFNγ response [4]: strong IFNγ response | IL-4/IFNγ ratio divided by this ratio for DB01-1 (value in parentheses) [5]: 1.0 | ratio IL-4/IFNγ [5]: 0.026 | Cytokine Response IFNγ [5, 8]: 7.29 ng/mL | Cytokine Response IL-4 [5, 8]: 0.19 ng/mL | EC50 [6]: 63.6 nM

CCCCCCCCCCCCCCCCCCCCCCCCCC(=O)N[C@@H](CO[C@H]1O[C@H](CO)[C@H](O)[C@H](O)[C@H]1O)[C@H](O)[C@H](O)CCCCCCCCCCCCCC [KRN7000, (2S,3S,4R)-1-O-(α-D-galactopyranosyl)-N-hexacosanoyl-2-amino-1,3,4-octadecanetriol]
incidence of diabetes [7]: approximately 5%

— patent publication US8022043B2, “Ceramide derivatives as modulators of immunity and autoimmunity” (Albert Einstein College of Medicine of Yeshiva University, priority 2004, dated 2011)
